# In article PMC12752606, “METTL10‐Mediated PIAS3 Methylation Links Purine Metabolism to Gastric Cancer Progression” (Advanced Science, 2025):
# Columns and labels:
# [1] = biological target: T1, GFP-tagged METTL10 protein (Homo sapiens, UniProt Q5JPI9); assay: Microscale thermophoresis (MST); type: binding; details: lysate of HEK293T cells expressing GFP-METTL10, read-out: Dissociation constant (KD)
# T1 construct: host or cells: HEK293T
# Procedure: Microscale thermophoresis (MST) assays were conducted following the protocol.^[ [49] ^] Briefly, HEK293T cells were transfected with either the pEGFP‐N1‐METTL10 plasmid or the control pEGFP‐N1‐Vector plasmid for 24 h. Subsequently, protein lysates were obtained through ultrasonic disruption at 4 °C. Aliquots of the lysate were then incubated with serially diluted ligands at 37 °C for 30 min. Fluorescence signals were measured, and dissociation constants (Kd) were determined using the NanoTemper Monolith Pico.
# MKN45 and AGS cells = assay: Cell proliferation, CCK-8 assay; type: cell-based; details: 10 and 20 µM
# Procedure: Cell proliferation was assessed using Cell Counting Kit‐8 (CCK‐8; K1018, APExBIO). Briefly, 1000 cells per well were seeded into 96‐well plates, and proliferation was measured at 450 nm on days 0, 1, 3, 5, and 7 using the CCK‐8 assay using a multifunctional microplate reader.
# ATK orthotopic tumors = assay: Orthotopic ATK cell gastric cancer allograft model with flow cytometry of tumor-infiltrating cells; type: in vivo, C57BL/6 mice
# Procedure: Orthotopic gastric cancer models were established by surgically implanting 1 × 10⁶ METTL10‐overexpressing or vector control ATK cells into the gastric subserosal layer of C57BL/6 mice under aseptic conditions. Tumor tissues were harvested 20 days post‐implantation for subsequent analyses. In a separate cohort, mice bearing orthotopic tumors (1 × 10⁶ cells implanted) received subcutaneous administration of LZQ‐02‐023‐01 at a dose of 40 mg/kg/day, starting 7 days after tumor implantation. The treatment continued daily for 14 consecutive days. Tumor burden and therapeutic response were assessed at the end of the treatment period by excision and analysis of gastric tumors.
# Tumor tissues were finely minced into approximately 1 mm^3 pieces and enzymatically digested in Hank's Balanced Salt Solution (HBSS) containing type IV collagenase (2357210, Gibco) at 37 °C for 1 h. The resulting cell suspensions were gently triturated and passed through an 80 µm cell strainer (22131209, Biosharp) to remove debris. Red blood cells were lysed using ACK lysis buffer (R1010, Solarbio) to yield a single‐cell suspension. Cells were subsequently stained with a cocktail of fluorochrome‐conjugated antibodies (1:200 dilution; details listed in Table S6, Supporting Information) and a fixable viability dye (1:200, 2365395, Invitrogen) for 30 min at 4 °C in the dark. After washing, the stained cells were analyzed using a Sony ID7000 spectral flow cytometer (Sony Biotechnology).
# Paraffin sections were initially placed in an oven at 65 °C for 30 min to melt the paraffin. The slides were then immersed in two consecutive xylene baths for 10 min each to dewax the tissue, followed by hydration through a series of graded ethanol solutions. The sections were stained with hematoxylin for 10 min. After differentiation with 1% hydrochloric acid alcohol, the sections were blued with lithium carbonate and counterstained with eosin for 3 min. The slides were then dehydrated in graded ethanol and mounted with neutral resin. All pathological results were performed in a blinded manner by experienced gastrointestinal pathologists. For IHC staining, sections were processed in accordance with the manufacturer's protocol (MXB Biotechnologies). Briefly, antigen retrieval was conducted at 37 °C for 30 min, followed by blocking at room temperature for 10 min. The sections were subsequently incubated with the appropriate primary antibody overnight at 4 °C. The following day, biotin‐conjugated secondary antibodies were applied and incubated for 1 h, followed by streptavidin‐peroxidase incubation for 10 min. Diaminobenzidine (DAB) was employed as the chromogen for visualization, and hematoxylin was used for counterstaining. Imaging was performed using the Olympus VS200 microscope.
# METTL10 = tested on: T2, METTL10; assay: In vitro (cell-free) methylation of GST-PIAS3 by His-METTL10, immunoblotting; type: biochemical; details: 20 µM or higher; GST-PIAS3 with His-METTL10
# T2 construct: purchased ICE Bioscience Inc
# Procedure: For the in vitro methylation assay, His‐METTL10 (1 µg) was incubated with recombinant human Histone H4 protein (20 ng; Abcam, ab198115) or GST‐PIAS3 (100 ng) of in methylation reaction buffer (50 mM Tris‐HCl (pH 8.0), 20 mM KCl, 5 mM DTT, 4 mM EDTA) containing 20 µM S‐(5′‐adenosyl)‐L‐methionine chloride dihydrochloride (SAM) at 37 °C for 1 h. The reaction was terminated by boiling the samples in SDS‐PAGE loading buffer, and the products were analyzed by immunoblotting.
# [2] = biological target: other tested methyltransferases; assay: Off-target methyltransferase profiling, panel as a whole; type: biochemical; details: all panel enzymes other than METTL10
# Procedure: To evaluate the off‐target effects of LZQ‐02‐023‐01 on methyltransferase activity, a panel of enzymes was assessed using the MTase‐Glo Methyltransferase Assay (Promega), following the manufacturer's instructions. The assay was performed by ICE Bioscience Inc. Briefly, LZQ‐02‐023‐01 was serially diluted 4‐fold in DMSO to generate a 10‐point concentration gradient, and the resulting solutions were dispensed into 384‐well white assay plates using an Echo acoustic liquid handler (Labcyte). Plates were centrifuged at 1000 rpm for 1 min to ensure even compound distribution. Following a 10‐min preincubation at 25 °C, 2 µL of a substrate solution containing S‐adenosylmethionine (SAM) and the specific methyltransferase substrate (Table S7, Supporting Information) was added to each well. After a brief centrifugation, plates were incubated at 25 °C for 180 min to allow the enzymatic methylation reaction to proceed. Subsequently, 1 µL of MTase‐Glo reagent was added, followed by centrifugation and incubation at 25 °C for 45 min. […]
# Luminescence signals were directly proportional to methyltransferase activity, were recorded using a microplate reader (BMG LABTECH). Percent inhibition was calculated by normalizing luminescence intensities of compound‐treated wells to DMSO‐treated controls, and IC50 values were calculated using GraphPad Prism 8 software.
# [3] = 40 mg/kg/day for 14 days, flow cytometry
# T1 sequence (Q5JPI9 1-291 isoform Q5JPI9-1): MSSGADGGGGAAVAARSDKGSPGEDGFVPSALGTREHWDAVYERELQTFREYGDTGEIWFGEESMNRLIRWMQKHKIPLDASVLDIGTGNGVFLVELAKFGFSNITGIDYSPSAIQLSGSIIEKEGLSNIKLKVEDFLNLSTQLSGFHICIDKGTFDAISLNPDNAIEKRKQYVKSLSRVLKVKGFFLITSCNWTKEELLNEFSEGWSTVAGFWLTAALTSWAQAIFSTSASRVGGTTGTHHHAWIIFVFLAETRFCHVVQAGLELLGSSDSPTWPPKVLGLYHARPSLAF
structure (smiles),measurement,setting,value
"Cc1ccc(Nc2ncc3c(n2)N(C)C(=O)N(c2cccc(N)c2)C3)cn1 [LZQ-02-023-01, Three‐(3‐aminophenyl)‐1‐methyl‐7‐((6‐methylpyridin‐3‐yl)amino)‐3,4‐dihydropyrimido [4,5‐d] pyrimidin‐2 (1H)‐one]",Kd,[1],4.47 µM
same,GC cell proliferation (CCK-8),MKN45 and AGS cells,significantly inhibited
same,Tumor burden,"ATK orthotopic tumors; 40 mg/kg/day for 14 consecutive days, ATK orthotopic model, vs vehicle",significant reduction in tumor burden
same,Proliferative activity (Ki-67 expression) of tumors,ATK orthotopic tumors; 40 mg/kg/day for 14 days,reduced proliferative activity
same,Tumor-infiltrating B cells,ATK orthotopic tumors; [3],modest decrease
same,Tumor-infiltrating T lymphocytes (CD4+ and CD8+),ATK orthotopic tumors; [3],moderate increase
same,Methylation of PIAS3 in cell-free system,METTL10,decreased
same,IC50,[2],> 3 µM
